Reference: patent US20220378763A1, “COMPOUND FOR TREATMENT OF ACUTE INFLAMMATION IN THE MYOCARDIUM” (CALPROTECT AB, priority 2019, published 2022)

Tests used:
[1] = tested on: Nur77 response elements NBRE and NurRE in RAW264.7 macrophages; assay: Nur77 activity luciferase reporter assay in RAW264.7 macrophages stimulated with S100A9; format: cell-based, mouse; details: S100A9 20 μg/mL, ABR-238901 100 μM, 16 hours
Protocol: Low-passage RAW264.7 mouse macrophages (ATCC #TIB-71) were seeded at 125.000 cells/mL in DMEM medium containing 2 mM L-glutamine (Gibco), 10% Fetal Calf Serum (Gibco), and 1% penicillin/streptomycin (Invitrogen). The next day, cells were transfected with pXP1-NurRE-fluc or pGL2-4xNBRE-fluc firefly luciferase Nur77 reporter constructs using Lipofectamine LTX with PLUS reagent (Invitrogen) according to manufacturer's instructions. pRluc-N3, which constitutively expresses Renilla luciferase from the CMV promoter, was co-transfected as an internal control to verify transfection efficiency. Extracellular S100A9 (20 μg/mL) was incubated in the presence of 10 μM ZnCl2 (Sigma) for 15 minutes with or without 100 μM of ABR-238901, and added to the cells 4 hours after transfection. After 16 hours of stimulation, the cells were washed and firefly and Renilla luciferase activities were determined using the Dual-Luciferase Reporter Assay System and a GloMax luminescent plate reader (both Promega).

[2] = tested on: C57BL/6 mice with sepsis induced by bacterial lipopolysaccharide; assay: LPS-induced sepsis: echocardiography; format: in vivo, mouse; details: 30 mg/kg i.p. at 0 and 6 h after LPS
Protocol: Female C57BL/6NRJ mice, 10 weeks of age, were purchased from Janvier Labs and housed under 12 h:12 h light:dark cycles with access to food and water ad libitum. The mice were randomly assigned to the two treatment groups, n=5 mice per group. Sepsis was induced by intraperitoneal (i.p.) injection of 5 mg/kg bacterial lipopolysaccharide (Sigma-Aldrich) in all animals. Immediately thereafter and 6 h later, the mice received treatment with 30 mg/kg ABR-238901 or an equivalent volume of PBS administered i.p. The mice were monitored daily to ensure their well-being. All mouse studies were approved by the Animal Research Ethics Committee of Lund University.
Transthoracic echocardiography was performed at baseline before induction of sepsis, and at 6 h, 12 h and 24 h using the Vevo 3100 platform (VisualSonics) equipped with a MX550D imaging transducer. Anesthesia was induced with 2% Isoflurane (AbbVie) and maintained with 1.25% Isoflurane throughout imaging. Hair was removed using depilatory cream before the application of pre-warmed ultrasound gel. Parasternal long axis recordings were performed in the plane containing the aortic valves and a maximal apex view. Analysis was carried out using the VevoLab software (Visual Sonics). Briefly, the perimeter and long axis of the left ventricle were traced at the end of diastole and at the end of systole and used to calculate left ventricular end-systolic and end-diastolic volumes. Left ventricular stroke volume was calculated as the difference between the left ventricular end-diastolic and end-systolic volumes. Left ventricular ejection fraction was calculated as percentage stroke volume out of the end-diastolic volume. Cardiac output was calculated by multiplying the stroke volume with the heart rate at the time of the examination.

SMILES: COc1ncc(S(=O)(=O)Nc2cncc(Cl)c2O)cc1Br [ABR-238901, 5-bromo-N-(5-chloro-4-hydroxypyridin-3-yl)-6-methoxypyridine-3-sulfonamide]
- S100A9-induced increase of Nur77 activity (NBRE and NurRE luciferase reporters) [1]: inhibited
- Left ventricular ejection fraction (LVEF) ([2]; 12 h): 44.7%
- Cardiac output ([2]; 24 h): 9.17 mL/min
- Left ventricular ejection fraction (LVEF) ([2]; 24 h): 54.74%
